Patent US10172832B2, “Amide derivatives of N-urea substituted amino acids as formyl peptide receptor like-1 (FPRL-1) receptor modulators” (Allergan, Inc., priority 2011, dated 2019)

Molecular target: T1, FPRL-1 (Homo sapiens, UniProt P25090)
T1 construct: expressed in transfected cells
T1 sequence (P25090 1-351): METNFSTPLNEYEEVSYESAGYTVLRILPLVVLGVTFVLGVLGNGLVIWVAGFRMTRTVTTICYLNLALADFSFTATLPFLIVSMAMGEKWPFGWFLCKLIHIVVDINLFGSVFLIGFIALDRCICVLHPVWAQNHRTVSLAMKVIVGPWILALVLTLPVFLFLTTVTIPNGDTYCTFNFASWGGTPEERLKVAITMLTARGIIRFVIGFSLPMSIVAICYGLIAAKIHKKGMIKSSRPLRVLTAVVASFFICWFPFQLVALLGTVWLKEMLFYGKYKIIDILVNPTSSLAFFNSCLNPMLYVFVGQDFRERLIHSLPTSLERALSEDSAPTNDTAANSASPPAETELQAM
Test: compound-induced calcium activity on FLIPR Tetra in CHO-Gα16 cells stably expressing FPRL1
Assay type: cell-based
Conditions: for FPRL-1 Ga16-CHO (Rel. eff.): relative efficacy; for EC50: tested 0.61 to 10,000 nM, read-out: FPRL-1 Ga16-CHO EC50
Method in brief: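 CHO-Gα16 cells stably expressing FPRL1, plated at 18,000 cells/well the day before, were read for compound-induced calcium response on FLIPR Tetra.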

| FPRL-1 Ga16-CHO (Rel. eff.) | EC50 [nM] | Structure (SMILES) |
| --- | --- | --- |
| (1.05) | 2.95 | CSc1ccc(NC(=O)N[C@@H](CC(C)C)C(=O)NCC(=O)O)cc1 [Compound 70, {[(2S)-4-methyl-2-({[4-(methylsulfanyl)phenyl]carbamoyl}amino)pentanoyl]amino}acetic acid] |
| (0.81) | 309 | CC(C)C[C@H](NC(=O)Nc1ccc(C(F)(F)F)cc1)C(=O)NCC(=O)OC(C)(C)C [Compound 62, tert-butyl {[(2S)-4-methyl-2-({[4-(trifluoromethyl)phenyl]carbamoyl}amino)pentanoyl]amino}acetate] |
| (1.00) | 62 | CC[C@H](C)[C@H](NC(=O)Nc1ccc(Br)cc1F)C(=O)NCCO [Compound 15, (2S,3S)-2-{[(4-bromo-2-fluorophenyl)carbamoyl]amino}-N-(2-hydroxyethyl)-3-methylpentanamide] |
| (0.99) | 480 | CC(C)(NC(=O)Nc1ccc(Br)cc1)C(=O)NCC(=O)O [Compound 60, {[2-{[(4-bromophenyl)carbamoyl]amino}-2-methylpropanoyl]amino}acetic acid] |
| (0.45) | 19300 | CC[C@@H](C)[C@@H](NC(=O)Nc1ccc(Br)cc1)C(=O)NCC(=O)O [Compound 65, {[(2R,3R)-2-{[(4-bromophenyl)carbamoyl]amino}-3-methylpentanoyl]amino}acetic acid] |
| (0.96) | 24 | CC(C)C[C@H](NC(=O)Nc1ccc(Br)cc1)C(=O)N[C@@H](C)C(N)=O [Compound 45, (2S)-N-[(1S)-2-amino-1-methyl-2-oxoethyl]-2-{[(4-bromophenyl)carbamoyl]amino}-4-methylpentanamide] |
| (0.82) | 4.7 | CC(=O)CNC(=O)[C@H](CC(C)C)NC(=O)Nc1ccc(Br)cc1 [Compound 27, (2S)-2-{[(4-bromophenyl)carbamoyl]amino}-4-methyl-N-(2-oxopropyl)pentanamide] |
| (0.92) | 2.3 | CC(C)C[C@H](NC(=O)Nc1ccc(C(F)(F)F)cc1)C(=O)NC(C)(C)C(=O)O [Compound 69, 2-methyl-2-{[(2S)-4-methyl-2-({[4-(trifluoromethyl)phenyl]carbamoyl}amino)pentanoyl]amino}propanoic acid] |
| (0.98) | 5.2 | CCC[C@H](NC(=O)Nc1ccc(Br)cc1F)C(=O)NCC(N)=O [Compound 31, (2S)-N-(2-amino-2-oxoethyl)-2-{[(4-bromo-2-fluorophenyl]carbamoyl}amino)pentanamide] |
| (1.19) | 134 | CC(C)C[C@H](NC(=O)Nc1ccc(Br)cc1F)C(=O)NCC(=O)OC(C)(C)C [Compound 33, tert-butyl{[(2S)-2-{[(4-bromo-2-fluorophenyl)carbamoyl]amino}-4-methylpentanoyl]amino}acetate] |
